Ends that are not written are not given here.
Columns and labels:
[1] = system: Chronic Myocardial Infarction Model; test: Echocardiography in chronic myocardial infarction model after polymer injection; format: in vivo, Sprague-Dawley rats; details: rat; for Diastolic volume / MI wall thickness / Systolic volume: 5 weeks post-treatment vs baseline; for Fractional area change (FAC), 5 weeks post-treatment / LV ejection fraction, 5 weeks post-treatment: 100 μL injected into infarcted LV, 5 weeks post-treatment (10 weeks post-MI); for Fractional area change (FAC), 5 weeks post-treatment / LV ejection fraction, 5 weeks post-treatment / Fractional area change (FAC), baseline / LV ejection fraction, baseline: mean ± SD; for Fractional area change (FAC), baseline / LV ejection fraction, baseline: baseline 5 weeks post-MI, before treatment
Description: (§1) All surgical procedures were approved by the Committee for Animal Research of the University of California San Francisco (San Francisco, Calif.). Female Sprague-Dawley rats (225-250 g) were anesthetized with isoflurane. The chest was opened by a median sternotomy, and a single stitch of 7-0 Ticron suture (United States Surgical division of Tyco Healthcare, Norwalk, Conn.) was introduced around the left anterior descending (LAD) coronary artery and tightened to occlude for 30 min. before re-perfusing the vessel (Yu et al, J Thorac Cardiovasc Surg. 2009 Jan. 1, 2009; 137(1):180-7; Christman et a, J Am Coll Cardiol. 2004; 44(3):654-60; Christman et al, Tissue Eng. 2004; 10(3-4):403-9; Huang et al, Tissue Eng. 2005; 11(11-12):1860-6; Sievers et al, Magn Reson Med. 1989; 10:172-81; and Yu et al, Biomaterials. 2009; 30(5):751-6; which are hereby incorporated by reference in their entirety). Cardiac monitoring during the LAD occlusion confirmed the presence of myocardial injury as indicated by ST-elevation. The chest was then closed and the animal was allowed to recover for 5 weeks in order to allow for a LV aneurysm to fully develop. Transthoracic echocardiography was performed 5 weeks post-MI and 5 weeks post-treatment as previously described (Yu et al, J Thorac Cardiovasc Surg. 2009 Jan. 1, 2009; 137(1):180-7; and Litwin et al, Circulation. 1994; 89:345-54; which are hereby incorporated by reference in their entirety).
(§2) Five weeks post-MI and prior to treatment, we verified the LV aneurysmal formation and compromised LV function via echocardiography. The rats were randomized into MC:CMC, MC:CMC-RGD, MC:CMC-HepIII, or phosphate-buffered saline (PBS) control groups (N=8-9 rats/group). Using a closed chest echocardiography-guided injection technique (Springer et al, American Journal of Physiology—Heart and Circulatory Physiology. Sep. 1, 2005; 289(3):H1307-H14; which is hereby incorporated by reference in its entirety), 100 μL of polymer or PBS solution was injected into the infracted LV region of each heart, using a 1 mL syringe system and a 25-gauge needle.

[2] = system: Chronic Myocardial Infarction Model; test: Histology/immunohistochemistry of infarct region (infarct size, angiogenesis, cardiac cells); format: in vivo, Sprague-Dawley rats; details: rat, 5 weeks post-treatment; for Density of cardiomyocytes within the infarct region / Infarct size: compared to PBS negative control; for Capillary density in the infarct region: CD31 staining; for Capillary density in the infarct region / Arteriole density within the infarct region: mean ± SD; for Infarct size: Masson's trichrome; for Arteriole density within the infarct region: α-smooth muscle actin staining
Description: as §1, §2
Five weeks post-treatment (10 weeks post-MI), the rats were euthanized and their hearts were harvested, rinsed in cold saline, blotted-dry and fresh frozen in Tissue Tek O.C.T. freezing medium (Sakura Finetek, Torrance, Calif.). The hearts were sectioned into 10 μm slices. Sequential slides spanning the LV region were stained with Masson's trichrome stain and were used for morphological assessment of the infarct size as previously described (Christman et al, J Am Coll Cardiol. 2004; 44(3):654-60). Angiogenesis, arteriogenesis, and the number of cardiac cells within the infarct region were examined by immunohistochemical (IHC) staining with mouse monoclonal anti-CD31 (BD Biosciences Pharmingen, San Diego, Calif.) to visualize capillaries, mouse monoclonal anti-α-smooth muscle actin (Sigma, St. Louis, Mo.) to detect arterioles (Virag et al, Am J Pathol. 2003 Dec. 1, 2003; 163(6):2433-40; which is hereby incorporated by reference in its entirety), and mouse monoclonal anti-rat cardiac α-myosin heavy chain (Panorama Research Institute, Mountain View, Calif.) to detect the cardiac cells. The staining assay was performed using mouse-on-rat HRP-polymer (Biocare Medical, Concord, Calif.) on slides that were sequential to the slides stained with trichrome. Capillaries in the infarct region were identified as a single layer of CD31-positive cells with flattened morphology. Vessel density, cardiac cell density, and nuclei density was calculated on the basis of 5 high magnification fields per section that spanned the infarct and averaged among 5 sections for each sample. Arterioles within or bordering the infarct were identified as staining positive for α-smooth muscle actin and as having a visible lumen with a diameter between 10 and 100 μm (Yu et al, J Thorac Cardiovasc Surg. 2009 Jan. 1, 2009; 137(1):180-7; and Christman et a, J Am Coll Cardiol. 2004; 44(3):654-60). […]

[3] = Rheology studies of 5:1 MC:CMC polymer blends; format: physicochemical; details: for Gelling temperature: 5:1 MC:CMC polymer blends, intersection of elastic and viscous modulus plots, mean ± SEM; for Effect of peptide conjugation on viscoelastic properties of the polymer: 5:1 blend, 20-40° C., vs unconjugated polymer
Description: Rheology measurements (Advanced Rheometer AR2000, TA Instruments, New Castle, Del.) were done on MC:CMC, MC:CMC-RGD, and MC:CMC-HepIII co-polymers mixed at a 5:1 ratio. The elastic modulus and viscous modulus were determined for temperatures ranging from 20-40° C., with 1° C. increments. The equilibration time was set at 1 min. and the frequency was set at 1 Hz. The gelling temperature was defined as the point of intersection between the plot for the elastic modulus and the plot for the viscous modulus. Measurements were done in triplicate.

Row | Substance | Diastolic volume [1] | MI wall thickness [1] | Systolic volume [1] | Fractional area change (FAC), 5 weeks post-treatment [1] [%] | LV ejection fraction, 5 weeks post-treatment [1] [%] | Fractional area change (FAC), baseline [1] [%] | LV ejection fraction, baseline [1] [%] | Density of cardiomyocytes within the infarct region [2] | Capillary density in the infarct region [2] [capillaries/mm^2] | Infarct size [2] | Arteriole density within the infarct region [2] [arterioles/mm^2] | Gelling temperature [3] [°C] | Effect of peptide conjugation on viscoelastic properties of the polymer [3]
1 | MC:CMC-HepIII: Methylcellulose blended 5:1 with carboxymethylcellulose conjugated to HepIII peptide GEFYFDLRLKGDKY (SEQ ID NO: 2) (also: conjugated to carboxymethylcellulose, blended with methylcellulose (attachment site not given here)) | significantly decreased | increase | significantly decreased | 45.6±9.63 | 43.0±6.25 | 36.9±2.60 | 36.9±2.18 | higher density | 424±56 | statistically significant reduction | 28±10 | 26.85 ± 0.6256 | decreased stiffness and viscosity
2 | MC:CMC-RGD: Methylcellulose blended 5:1 with carboxymethylcellulose conjugated to RGD peptide GRGDSPASSPISC (SEQ ID NO: 1) (also: conjugated to carboxymethylcellulose, blended with methylcellulose (attachment site not given here)) | significantly decreased | increase | significantly decreased | 44.0±9.26 | 42.9±8.29 | 36.0±2.44 | 34.2±1.91 | higher density | 472±146 | statistically significant reduction | 32±12 | 26.75 ± 0.4954 | did not significantly alter
